In experiment [1] the test system is Primary human CD34+ cells isolated from mobilized peripheral blood. In words: Relative expansive effect (relative cell number), mobilized peripheral blood CD34+ cells in StemSpan SFEM (Example 23). It is filed as cell-based. As to the method: Mobilized peripheral blood was purchased from StemCell Technologies. The blood was mobilized using G-CSF from volunteer donors. Volunteers were administered a maximum of 10 ug/kg/day of granulocyte colony-stimulating factor (G-CSF) for 3-5 days prior to collection. Primary human CD34+ cells were isolated from mobilized peripheral blood leukapheresis samples using positive immunomagnetic separation techniques.
Isolated CD34+ cells were incubated in an in vitro culture media of StemSpan SFEM. When testing the substituted derivatives of 9,10-dihydrophenathrene (+Derivative conditions), two internal controls were used: a positive control (+SF conditions) and a baseline control (i.e, basic conditions (“cytokines only”)). The media components and concentrations used for the compounds tested are described in Table 8, above. The culture also included an antibiotic solution that includes penicillin, streptomycin, and amphotericin B to avoid contamination. Controls were included because the amount of expansion in samples obtained varies from individual to individual.
Cultures were incubated at 3% oxygen (controlled by nitrogen) and 5% CO2. […]
Table 10, below, summarizes the relative expansive effect of Compound 1.013 at the indicated concentration. […] Relative cell number is calculated as described in Example 22.

For experiment [2], the system named is CD34+ cells isolated from donor non-mobilized peripheral blood (hematopoietic stem cells). Kind of experiment: Culture of CD34+ cells from non-mobilized peripheral blood with SF1670 or SF1670 and ER50891, flow cytometry (Example 17). It is filed as cell-based, human. Conditions: after 7 days in culture, SF1670 250 nM (ER50891 100 nM), compared with Base conditions. As to the method:
CD34+ cells were isolated from donor peripheral blood. Whole blood was centrifuged at 1750×g (the speed of centriguation may vary) for 20 minutes. Plasma was drawn off using a pipette or syringe. Concentrated red blood cell (RBC) layer was drawn off with a pipette or syringe. Residual RBCs were lysed using standard RBC lysis protocols. White blood cell (WBC) layer was washed in PBS and spun down several times at 300 g for 7 minutes to remove platelets and some debris. Cells were pelleted and incubated with unlabeled CD64 antibody. Cells then undergo negative depletion using biotinylated CD2, CD3, CD4, CD5, CD8, CD11b, CD14, CD16, CD19, CD20, CD45RA, CD56, CD235 (in some examples CD15, CD25 and other lineage specific antibodies may also be used). Cells which bind these antibodies are depleted using streptavidin beads. The resultant progenitor enriched cell pool were cultured directly (residual mature cells and late progenitors will be killed off over time in culture) or cell pool can undergo a CD34 or CD133 positive selection to further enrich for the desired cells before culturing.
Isolated CD34+ cells were incubated in an in vitro culture media of Alpha MEM without phenol red, 10% (v/v) heat inactivated fetal bovine serum (FBS). Base Conditions, +SF Conditions, and +SF/+ER conditions further included the components described in Table 2. Each condition tested also included an antibiotic solution that includes penicillin, streptomycin, and amphotericin B to avoid contamination.
(§1) Cultures were incubated at 3% oxygen (controlled by nitrogen) and 5% CO2.
(§2) Small molecule components were added separately and fresh each time the media needs to be refreshed. Cytokines can be stored together. Media renewal should occur at least every few days.
(§3) On the days indicated one-half of the volume of the cell culture was removed for data analysis (flow cytometry using a BD FACS ARIA II). The culture volume was replenished with fresh media according to the conditions tested. The data reported accounts for the dilution factor introduced in this procedure.
For orientation: In flow cytometry, cells or beads pass a laser one at a time.

Experiment [3] deals with hematopoietic stem cells derived from cord blood. Kind of experiment: Culture of cord blood with SF1670, flow cytometry (Example 19). The format is cell-based, human. As to the method: A frozen cord blood sample was thawed and gradually brought to room temperature. Thawed cord blood was incubated in an in vitro culture media of Alpha MEM without phenol red, 10% (v/v) heat inactivated fetal bovine serum (FBS). Base Conditions and +SF Conditions further included the components described in Table 4. Each condition tested also included an antibiotic solution that includes penicillin, streptomycin, and amphotericin B to avoid contamination.
as §1, §2, §3

Experiment [4] has as its system CD34+ cells isolated from donor non-mobilized peripheral blood. Kind of experiment: Titration of SF1670 on CD34+ cells from non-mobilized peripheral blood, flow cytometry (Example 20). It is filed as cell-based, human.
Excerpt: CD34+ cells were isolated from donor peripheral blood. Standard ficoll paque layering was used to separate the buffy coat. Cells then undergo negative depletion using biotinylated CD2, CD3, CD4, CD5, CD8, CD1 Ib, CD14, CD16, CD19, CD20, CD45RA, CD56, CD235 (in some examples CD15, CD25 and other lineage specific antibodies may also be used). Cells which bind these antibodies are depleted using streptavidin beads. The depleted cell pool was sorted for CD34+ cells before being placed in cell culture.
Isolated CD34+ cells were incubated in an in vitro culture media of Alpha MEM without phenol red, 10% (v/v) heat inactivated fetal bovine serum (FBS) and +SF conditions. +SF conditions included the components described in Table 5. The culture also included an antibiotic solution that includes penicillin, streptomycin, and amphotericin B to avoid contamination.
as §1, §2, §3

With `O=C1C(=O)c2ccc(O)cc2-c2ccccc21` [Compound 1.013, 3-hydroxyphenanthrene-9,10-dione], the “CD133 effect (relative expansive effect, relative cell number)” value in experiment [1] (7 days in culture, 1 μM sample compound, mobilized peripheral blood, StemSpan SFEM) was “+++ (0.55 ≤ x < 0.9)”. Besides, the “expansive effect on HSCs in culture” value in experiment [1] (number of cells per well after 7 days, FIG. 18) is listed as “positive expansive effect”.

As for `CC(C)(C)C(=O)Nc1ccc2c(c1)C(=O)C(=O)c1ccccc1-2` [SF1670], the “number of CD34+ cells” value in experiment [2] (FIG. 1A) was “increased numbers”. Further, the “number of CD133+ cells” value in experiment [2] (FIG. 1B) is “increased numbers”. Further, in experiment [2] (FIG. 1C), the “number of CD90+ cells” value is “increased numbers”. Besides, in experiment [3] (+SF conditions (SF1670 500 nM) vs Base conditions, FIG. 3B), the “total number of CD34+ cells” value is given as “increase”. Also, the “total number of CD133+ cells” value in experiment [3] (+SF conditions (SF1670 500 nM) vs Base conditions, FIG. 3C) is “increase”. Also, in experiment [3] (+SF conditions (SF1670 500 nM) vs Base conditions, FIG. 3D), the “total number of CD90+ cells” value is “increase”. Also, in experiment [3] (+SF conditions (SF1670 500 nM) vs Base conditions, FIG. 3E), the “total number of CD38− cells” value is “increase”. In addition, in experiment [3] (SF1670 500 nM, after 16 days in culture, FIG. 4B), the “fold increase in CD34+ cells from day 2” value is recorded as “greater than 50 fold”. Further, in experiment [3] (SF1670 500 nM, after 16 days in culture, FIG. 4C), the “fold increase in CD133+ cells from day 2” value is recorded as “greater than 50 fold”. For the same compound, the “fold increase in CD90+ cells from day 2” value in experiment [3] (SF1670 500 nM, after 16 days in culture, FIG. 4D) was roughly 30 fold. Moreover, in experiment [3] (SF1670 500 nM, after 16 days in culture, FIG. 4E), the “fold increase in CD38− cells from day 2” value is reported as roughly 5 fold. In experiment [4] (SF1670 125 nM, 250 nM and 500 nM, FIG. 5B-5E), the “expansive effect on the enhancement of hematopoietic stem cells over the control condition (0 nM SF1670)” value is recorded as “at least some expansive effect”. Further, in experiment [4] (SF1670 1000 nM, FIG. 5A), the “expansion of any cell type (total cells)” value is “very little expansion”. Moreover, the expansive effect entry in experiment [4] (SF1670 1000 nM, days 4 and 7, FIG. 5A-5E) was “reduced expansive effect”.

(Values after patent US20200155609A1, “COMPOSITIONS AND METHODS OF MAKING EXPANDED HEMATOPOIETIC STEM CELLS USING PTEN INHIBITORS” (Transfusion Health LLC, priority 2017, published 2020).)
